Measurements published in patent US11155668B2, “Contact-killing, QAC functionalized thermoplastic polyurethane for catheter applications” (THE UNIVERSITY OF AKRON, priority 2017, dated 2021).
Entries after “also recorded” stand apart in the source; their conditions may differ.

Columns and labels:
[1] = system: E. coli; test: Live/dead fluorescence assay on blade-coated samples modified with Q8-SH; format: cell-based, Escherichia coli (ATCC 25922); details: for E. coli killed: at 10 min
Description: (§1) For antimicrobial testing, blade-coated samples and catheter tubing of allyl-TPU were sterilized by EtO sterilization using an Anprolene benchtop sterilizer (Anderson Products, Inc., Haw River, N.C.) following the manufacturer's protocol to deliver approximately 0.5 cc·L^−1 of EtO gas over a 12 h sterilization cycle at 35% humidity and room temperature, followed by a 48 h purge under vacuum. The bacterial strains used in this study included Staphylococcus epidermidis (ATCC 12228), Staphylococcus aureus (25923), Escherichia coli (ATCC 25922), Pseudomonas aeruginosa (ATCC 27853), Enterococcus faecalis (ATCC 29212), and methicillin-resistant Staphylococcus aureus (MRSA) (ATCC BAA-41).
(§2) A live/dead assay was performed using overnight cultures of E. coli grown in TSB and S. aureus grown in Mueller-Hinton broth (MH). The cells were washed with PBS (3×), resuspended in PBS, and diluted to obtain an OD600=0.15 (measured using a Hach DR2800 Spectrophotometer, λ=600 nm). The bacterial suspensions (1.0 mL) were stained with 2.0 μL of a dye mixture containing equal portions of 3.34 mM SYTO 9 and 20 mM propidium iodide (L7012 LIVE/DEAD™ BACLIGHT™ Bacterial Viability Kit, ThermoFisher Scientific) and allowed to incubate at room temperature in the dark for 15 min. Then, 10 μL of stained bacterial suspension was placed on a glass slide and covered with either untreated, phys. ads., or UV-treated samples modified with Q8-SH for 5 min (S. aureus) or 10 min (E. coli) before imaging. Live/dead microscopy was performed using an IX81 inverted microscope (Olympus, Center Valley, Pa.) and images were processed and quantified using ImageJ software.

[2] = system: NIH/3T3 fibroblast cells; test: Cell viability assay (LIVE/DEAD staining) on coated coverslips; format: cell-based; details: for cell viability relative to glass: 24 h
Description: NIH/3T3 fibroblast cells (ATCC CRL-1658) were used to assess cell viability (passage 9) on the allyl-TPU films. The 8% allyl-TPU was spin-coated on blank glass coverslips (1 wt. % in chloroform) and samples were annealed at 60° C. for 1 h, then kept under vacuum for 24 h. The coated coverslips were then treated and rinsed as previously described to produce a control, phys. ads., and UV-treated sample modified with Q8-SH. Samples were sterilized by short-wave UV sterilization for 30 minutes. Cells were seeded at a cell density of 194,000 cells/cm^2 and cultured for 24 hours in a 37° C. incubator. Samples were then removed and stained with a LIVE/DEAD™ Viability/Cytotoxicity Kit (ThermoFisher Scientific L3224). Slides were analyzed with a Keyence BZ-X700 microscope at 20× magnification. Pictograms were analyzed with ImageJ software for cell viability counting (n=5). All groups were compared to the glass slide control.

[3] = system: S. aureus; test: Live/dead fluorescence assay on blade-coated samples modified with Q8-SH; format: cell-based, Staphylococcus aureus (25923); details: within 5 min
Description: as §1
as §2, with “Then, 10 μL of stained bacterial suspension was placed on a glass slide and covered with either untreated, phys. ads., or UV-treated samples modified with Q8-SH for 5 min (S. aureus) or 10 min (E. coli) before imaging.” left out

[4] = UV-treated samples, within 10 min, OD600=0.15

## CCCCCCCC[N+](C)(C)CCCCCCCCOC(=O)CCS.[Cl-] [Q8-SH]
[1]; UV-treated samples
  E. coli killed: 90%
[1]; [4]
  E. coli inoculum killed (in words): nearly all; also recorded: majority
[1]; phys. ads. samples
  E. coli killed: 5%
[2]; UV-treated samples
  cell viability relative to glass: > 90%
[2]; control, phys. ads. and UV-treated samples compared to a glass slide control, FIG. 68
  cytotoxicity towards mammalian cells (in words): non-cytotoxic
[2]; phys. ads. samples
  cell viability relative to glass: > 90%
[3]; UV-treated samples
  portion of S. aureus killed: ca. 75%
[3]; [4]
  S. aureus inoculum killed (in words): nearly all; also recorded: majority
[3]; phys. ads. samples
  portion of S. aureus killed: ca. 50%
